Laboratory results published in patent US20250145633A1, “SUBSTITUTED FURANOPYRIMIDINE COMPOUNDS AS PDE1 INHIBITORS” (Dart NeuroScience, LLC, priority 2017, published 2025).

Biological target: human PDE1B enzyme (Homo sapiens (Human), UniProt Q01064)
Assay: IMAP TR-FRET PDE1B enzymatic assay
Assay type: biochemical
Conditions: negative log of half-maximal molar inhibitory concentration; 200 nM FAM-cAMP; values given as bins
How it was run: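 Full-length GST-tagged human PDE1B (250 pg/well) in IMAP BSA buffer with 10 U/ml calmodulin and 2.5 mM CaCl2; compound pre-incubated 5 min at room temperature, then 200 nM (final) FAM-cAMP for 30 min. IMAP binding reagent/Tb added, 1 h; TR-FRET 520/490 ratio read. IC50 from sigmoidal dose-response fit.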

`Cc1oc2ncnc(NC3(C)CC3)c2c1C(=O)N1CC=C(c2nccc(C#N)n2)CC1` [Example 775, 2-(1-{6-Methyl-4-[(1-methylcyclopropyl)amino]furo[2,3-d]pyrimidine-5-carbonyl}-1,2,3,6-tetrahydropyridin-4-yl)pyrimidine-4-carbonitrile] was tested, and the “PDE1b (pIC50)” value was >8.
`Cc1ccc(CNC(=O)c2c(C)oc3ncnc(NC4(C)CC4)c23)cc1C` [Example 237, N-[(3,4-Dimethylphenyl)methyl]-6-methyl-4-[(1-methylcyclopropyl)amino]furo[2,3-d]pyrimidine-5-carboxamide] was tested, and the “PDE1b (pIC50)” value was >8.
`Cc1oc2ncnc(NC3(C)CC3)c2c1C(=O)NC(C)c1ccc(F)cn1` (stereo not shown) [Example 51, N-[1-(5-Fluoropyridin-2-yl)ethyl]-6-methyl-4-[(1-methylcyclopropyl)amino]furo[2,3-d]pyrimidine-5-carboxamide] was tested, and the “PDE1b (pIC50)” value was >8.
In the case of `Cc1oc2ncnc(NC3(C)CC3)c2c1C(=O)NCc1cccc(C#N)c1` [Example 66, N-[(3-Cyanophenyl)methyl]-6-methyl-4-[(1-methylcyclopropyl)amino]furo[2,3-d]pyrimidine-5-carboxamide], the “PDE1b (pIC50)” value is reported as >8.
For `Cc1oc2ncnc(NC3(C)CC3)c2c1C(=O)N1CCC(c2ccc(F)cc2)CC1` [Example 60, 5-[4-(4-Fluorophenyl)piperidine-1-carbonyl]-6-methyl-N-(1-methylcyclopropyl)furo[2,3-d]pyrimidin-4-amine], the “PDE1b (pIC50)” value was >8.
With `Cc1oc2ncnc(NC3(C)CC3)c2c1C(=O)N1CCC(c2cccc(C(F)(F)F)c2)C1` (stereo not shown) [Example 396, 6-Methyl-N-(1-methylcyclopropyl)-5-{3-[3-(trifluoromethyl)phenyl]pyrrolidine-1-carbonyl}furo[2,3-d]pyrimidin-4-amine] the “PDE1b (pIC50)” value was >8.
With `Cc1oc2ncnc(NC3(C)CC3)c2c1C(=O)NCCOc1ccccc1F` [Example 559, N-[2-(2-Fluorophenoxy)ethyl]-6-methyl-4-[(1-methylcyclopropyl)amino]furo[2,3-d]pyrimidine-5-carboxamide] the “PDE1b (pIC50)” value was >8.
For `CCc1cc(CNC(=O)c2c(C)oc3ncnc(NC4(C)CC4)c23)no1` [Example 322, N-[(5-Ethyl-1,2-oxazol-3-yl)methyl]-6-methyl-4-[(1-methylcyclopropyl)amino]furo[2,3-d]pyrimidine-5-carboxamide], the “PDE1b (pIC50)” value was >8.
In the case of `COc1ncc(C2=CCN(C(=O)c3c(C)oc4ncnc(NC5(C)CC5)c34)CC2)cc1F` [Example 13, 5-[4-(5-Fluoro-6-methoxypyridin-3-yl)-1,2,3,6-tetrahydropyridine-1-carbonyl]-6-methyl-N-(1-methylcyclopropyl)furo[2,3-d]pyrimidin-4-amine], the “PDE1b (pIC50)” value is reported as >8.
`Cc1oc2ncnc(NC3(C)CC3)c2c1C(=O)N1CCC(c2nccc(C3CC3)n2)CC1` [Example 368, 5-[4-(4-Cyclopropylpyrimidin-2-yl)piperidine-1-carbonyl]-6-methyl-N-(1-methylcyclopropyl)furo[2,3-d]pyrimidin-4-amine] was tested, and the “PDE1b (pIC50)” value was >8.

Same assay, conditions: negative log of half-maximal molar inhibitory concentration; 200 nM FAM-cAMP; values given as bins; read-out: PDE1b (pIC50) (converted)

`Cc1oc2ncnc(NC3(C)CC3)c2c1C(=O)NCc1nccc(C(F)(F)F)n1` [Example 680, 6-Methyl-4-[(1-methylcyclopropyl)amino]-N-{[4-(trifluoromethyl)pyrimidin-2-yl]methyl}furo[2,3-d]pyrimidine-5-carboxamide] and `Cc1oc2ncnc(NC3(C)CC3)c2c1C(=O)NCc1cc(=O)[nH]cn1` [Example 661, 6-Methyl-4-[(1-methylcyclopropyl)amino]-N-[(6-oxo-1,6-dihydropyrimidin-4-yl)methyl]furo[2,3-d]pyrimidine-5-carboxamide] fall in the same range of IC50: 10 to 100 nM for the first, 10 to 100 nM for the second.

`COc1ccc(C2CN(C(=O)c3c(C)oc4ncnc(NC5(C)CC5)c34)CCO2)cc1` (stereo not shown) [Example 123, 5-[2-(4-Methoxyphenyl)morpholine-4-carbonyl]-6-methyl-N-(1-methylcyclopropyl)furo[2,3-d]pyrimidin-4-amine] and `Cc1oc2ncnc(NC3(C)CC3)c2c1C(=O)N1CCOCC1` [Example 117, 6-Methyl-N-(1-methylcyclopropyl)-5-(morpholine-4-carbonyl)furo[2,3-d]pyrimidin-4-amine] fall in the same range of IC50: 100 to 1000 nM for the first, 100 to 1000 nM for the second.

`Cc1nn(C(=O)c2c(C)oc3ncnc(NC4(C)CC4)c23)c(C)c1CN1CCOCC1` [Example 415, 5-[3,5-Dimethyl-4-(morpholin-4-ylmethyl)-1H-pyrazole-1-carbonyl]-6-methyl-N-(1-methylcyclopropyl)furo[2,3-d]pyrimidin-4-amine] and `Cc1oc2ncnc(NC3(C)CC3)c2c1C(=O)N1CCc2ccc(Cl)nc2C1` [Example 286, 5-(2-Chloro-5,6,7,8-tetrahydro-1,7-naphthyridine-7-carbonyl)-6-methyl-N-(1-methylcyclopropyl)furo[2,3-d]pyrimidin-4-amine] fall in the same range of IC50: 10 to 100 nM for the first, 10 to 100 nM for the second.

`Cc1oc2ncnc(NC3(C)CC3)c2c1C(=O)NC1(C2CC2)CC1` [Example 149, N-(1-Cyclopropylcyclopropyl)-6-methyl-4-[(1-methylcyclopropyl)amino]furo[2,3-d]pyrimidine-5-carboxamide] and `Cc1oc2ncnc(NC3(C)CC3)c2c1C(=O)NC1(C2CC2)CCOCC1` [Example 129, N-(4-Cyclopropyloxan-4-yl)-6-methyl-4-[(1-methylcyclopropyl)amino]furo[2,3-d]pyrimidine-5-carboxamide] fall in the same range of IC50: 10 to 100 nM for the first, 10 to 100 nM for the second.

`CCCCCNC(=O)c1c(C)oc2ncnc(NC3(C)CC3)c12` [Example 167, 6-Methyl-4-[(1-methylcyclopropyl)amino]-N-pentylfuro[2,3-d]pyrimidine-5-carboxamide] and `C#CCNC(=O)c1c(C)oc2ncnc(NC3(C)CC3)c12` [Example 210, 6-Methyl-4-[(1-methylcyclopropyl)amino]-N-(prop-2-yn-1-yl)furo[2,3-d]pyrimidine-5-carboxamide] fall in the same range of IC50: 10 to 100 nM for the first, 10 to 100 nM for the second.

`CCc1cc(CN(C)C(=O)c2c(C)oc3ncnc(NC4(C)CC4)c23)on1` [Example 251, N-[(3-Ethyl-1,2-oxazol-5-yl)methyl]-N,6-dimethyl-4-[(1-methylcyclopropyl)amino]furo[2,3-d]pyrimidine-5-carboxamide] and `Cc1oc2ncnc(NC3(C)CC3)c2c1C(=O)Nc1cnn(C)c1C` [Example 417, N-(1,5-Dimethyl-1H-pyrazol-4-yl)-6-methyl-4-[(1-methylcyclopropyl)amino]furo[2,3-d]pyrimidine-5-carboxamide] fall in the same range of IC50: 10 to 100 nM for the first, 10 to 100 nM for the second.

`Cc1oc2ncnc(NC3(C)CC3)c2c1C(=O)NCc1ccccc1Cl` [Example 254, N-[(2-Chlorophenyl)methyl]-6-methyl-4-[(1-methylcyclopropyl)amino]furo[2,3-d]pyrimidine-5-carboxamide] and `Cc1ccc(Cl)c(NC(=O)c2c(C)oc3ncnc(NC4(C)CC4)c23)c1` [Example 256, N-(2-Chloro-5-methylphenyl)-6-methyl-4-[(1-methylcyclopropyl)amino]furo[2,3-d]pyrimidine-5-carboxamide] fall in the same range of IC50: 10 to 100 nM for the first, 10 to 100 nM for the second.

`Cc1oc2ncnc(NC3(C)CC3)c2c1C(=O)N1CCC(c2ncc(C(F)(F)F)cn2)CC1` [Example 431, 6-Methyl-N-(1-methylcyclopropyl)-5-{4-[5-(trifluoromethyl)pyrimidin-2-yl]piperidine-1-carbonyl}furo[2,3-d]pyrimidin-4-amine] and `Cc1oc2ncnc(NC3(C)CC3)c2c1C(=O)N1CCC(c2cn(C)nn2)CC1` [Example 778, 6-Methyl-5-[4-(1-methyl-1H-1,2,3-triazol-4-yl)piperidine-1-carbonyl]-N-(1-methylcyclopropyl)furo[2,3-d]pyrimidin-4-amine] fall in the same range of IC50: 10 to 100 nM for the first, 10 to 100 nM for the second.

`Cc1oc2ncnc(NC3(C)CC3)c2c1C(=O)NC1CCOC1` (stereo not shown) [Example 106, 6-Methyl-4-[(1-methylcyclopropyl)amino]-N-(oxolan-3-yl)furo[2,3-d]pyrimidine-5-carboxamide] and `Cc1oc2ncnc(NC3(C)CC3)c2c1C(=O)NCC1CCCO1` (stereo not shown) [Example 175, 6-Methyl-4-[(1-methylcyclopropyl)amino]-N-(oxolan-2-ylmethyl)furo[2,3-d]pyrimidine-5-carboxamide] fall in the same range of IC50: 10 to 100 nM for the first, 10 to 100 nM for the second.

`Cc1oc2ncnc(NC3(C)CC3)c2c1C(=O)N1CCc2ncc(O)cc2C1` [Example 333, 6-{6-Methyl-4-[(1-methylcyclopropyl)amino]furo[2,3-d]pyrimidine-5-carbonyl}-5,6,7,8-tetrahydro-1,6-naphthyridin-3-ol] and `COc1ncc2c(n1)CN(C(=O)c1c(C)oc3ncnc(NC4(C)CC4)c13)CC2` [Example 699, 5-{2-Methoxy-5H,6H,7H,8H-pyrido[3,4-d]pyrimidine-7-carbonyl}-6-methyl-N-(1-methylcyclopropyl)furo[2,3-d]pyrimidin-4-amine] fall in the same range of IC50: 100 to 1000 nM for the first, 100 to 1000 nM for the second.

Compared with `Cc1oc2ncnc(NC3(C)CC3)c2c1C(=O)Nc1cn(C)cn1` [Example 435, 6-Methyl-N-(1-methyl-1H-imidazol-4-yl)-4-[(1-methylcyclopropyl)amino]furo[2,3-d]pyrimidine-5-carboxamide], `Cc1oc2ncnc(NC3(C)CC3)c2c1C(=O)Nc1cnn(C)c1` [Example 141, 6-Methyl-N-(1-methyl-1H-pyrazol-4-yl)-4-[(1-methylcyclopropyl)amino]furo[2,3-d]pyrimidine-5-carboxamide] is lower in IC50: 100 to 1000 nM for the first, 10 to 100 nM for the second.

`Cc1oc2ncnc(NC3(C)CC3)c2c1C(=O)N1CCC(c2nccn2C)C1` (stereo not shown) [Example 320, 6-Methyl-5-[3-(1-methyl-1H-imidazol-2-yl)pyrrolidine-1-carbonyl]-N-(1-methylcyclopropyl)furo[2,3-d]pyrimidin-4-amine] and `Cc1oc2ncnc(NC3(C)CC3)c2c1C(=O)N1CCN(c2cc(F)ncn2)CC1` [Example 161, 5-[4-(6-Fluoropyrimidin-4-yl)piperazine-1-carbonyl]-6-methyl-N-(1-methylcyclopropyl)furo[2,3-d]pyrimidin-4-amine] fall in the same range of IC50: 10 to 100 nM for the first, 10 to 100 nM for the second.
